The numbers were not newly measured in US20230355939A1, “DEVICES AND METHODS FOR CONTINUOUS EXTRUSION OF A DRUG INTO THE MOUTH” (SynAgile Corporation, priority 2020, published 2023), which cites them from elsewhere.

Conditions in the first data set: not given
Take `N[C@@H](Cc1ccc(O)c(O)c1)C(=O)O` [LD, levodopa]: the solubility entry is “about 50 mg/mL”.

For another data set the following is noted: at 37° C.
`FC(C(F)(F)F)C(F)(F)F` [1,1,1,2,3,3,3-hepta-fluoropropane]: the “Approximate Pressure (vapor pressure)” value was approximately 6.4 bars.

As for `FCC(F)(F)F` [1,1,1,2-tetrafluoroethane], the “Approximate Pressure (vapor pressure)” value is approximately 9.3 bars. As to `FC(F)(F)CC(F)(F)F` [1,1,1,3,3,3 hexafluoropropane], the “Approximate Pressure (vapor pressure)” value is given as approximately 4.0 bars. For the compound `FCCF` [1,2-difluoroethane], the “Approximate Pressure (vapor pressure)” value is recorded as approximately 1.9 bars.

For the compound `CCCCF` [1-fluorobutane], the “Approximate Pressure (vapor pressure)” value is approximately 1.3 bars. As for `CCCF` [1-fluoropropane], the “Approximate Pressure (vapor pressure)” value was approximately 4.1 bars. As for `CC=CC` [2-butene], the “Approximate Pressure (vapor pressure)” value is approximately 3.2 bars. Take `CC(C)F` [2-fluoropropane]: the “Approximate Pressure (vapor pressure)” value is listed as approximately 5 bars.

For the compound `CCCC` [butane], the “Approximate Pressure (vapor pressure)” value is reported as approximately 3.5 bars.

Turning to `CCOCC` [diethyl ether], the “Approximate Pressure (vapor pressure)” value is given as approximately 1.1 bars. With `CCC(C)C` [isopentane], the “Approximate Pressure (vapor pressure)” value is listed as approximately 1.4 bars. Take `CCOC` [methyl ethyl ether]: the “Approximate Pressure (vapor pressure)” value is given as approximately 3 bars. Regarding `CC(C)(C)C` [neopentane], the “Approximate Pressure (vapor pressure)” value is approximately 2.4 bars. Turning to `FC1(F)C(F)(F)C(F)(F)C1(F)F` [octafluorocyclobutane], the “Approximate Pressure (vapor pressure)” value is approximately 4.3 bars. With `CCC` [propane], the “Approximate Pressure (vapor pressure)” value is approximately 12.8 bars. On to `C=CC` [propene], for which the “Approximate Pressure (vapor pressure)” value is approximately 15.5 bars.

The same data set, now with this note: at about 23 ± 3° C.
Turning to `FCC(F)(F)F` [1,1,1,2-tetrafluoroethane], the vapor pressure entry is recorded as “about 5 bars”.
